Assay results published in US9593108B2, “Compounds and methods for antiviral treatment” (PTC Therapeutics, Inc., priority 2009, dated 2017).

Tests used:
[1] = system: HCV replicon RNA (GenBank Accession No. AJ242654); assay: HCV Replicon Assay (replicon RNA reduction and/or Fluc reporter signal); type: cell-based, Hepatitis C virus; details: Hepatitis C virus, 72 h, replicon-containing cells cultured with test compound for up to 3 days
How it was run: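 Bicistronic replicon-containing cells cultured with compound for up to 3 days, with interferon as positive control. Inhibition quantified by replicon RNA reduction and/or Fluc reporter signal; IC50 values generally derived from replicon RNA reduction.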

For CCc1cnc2c(c1)c(C(N)=O)c(-c1ccc(S(=O)(=O)NC3(C(F)(F)F)CC3)cc1)n2C1CCC1 [Cpd 379, 1-cyclobutyl-5-ethyl-2-(4-{[1-(trifluoromethyl)cyclopropyl]sulfamoyl}phenyl)-1H-pyrrolo[2,3-b]pyridine-3-carboxamide], which IC50 [1] is on record?
The IC50 was < 0.5 µM.

And the melting point?
Its melting point is 173 to 179 °C.

For Cc1cnc2c(c1)c(C#N)c(-c1ccc(S(=O)(=O)N[C@@H](C)C(F)(F)F)cn1)n2-c1cccnn1 [Cpd 383, 6-[3-cyano-5-methyl-1-(pyridazin-3-yl)-1H-pyrrolo[2,3-b]pyridin-2-yl]-N-[(2S)-1,1,1-trifluoropropan-2-yl]pyridine-3-sulfonamide], which IC50 [1] is on record?
The IC50 was < 0.5 µM.

What about the melting point of the same compound?
The melting point was 150 to 153 °C.

What does the source list for Cc1cnc2c(c1)c(C#N)c(-c1ccc(S(=O)(=O)N[C@@H](C)C(F)(F)F)cn1)n2-c1cncnc1 [Cpd 384, 6-[3-cyano-5-methyl-1-(pyrimidin-5-yl)-1H-pyrrolo[2,3-b]pyridin-2-yl]-N-[(2S)-1,1,1-trifluoropropan-2-yl]pyridine-3-sulfonamide]?
IC50 [1]: < 0.5 µM; melting point: 231 to 233 °C

Which IC50 [1] does the source give for CC(C)(C)S(=O)(=O)Nc1ccc(-c2c(C#N)c3cc(Cl)cnc3n2C2CCC2)cc1 [Cpd 385, N-[4-(5-chloro-3-cyano-1-cyclobutyl-1H-pyrrolo[2,3-b]pyridin-2-yl)phenyl]-2-methylpropane-2-sulfonamide] here?
Its IC50 is < 0.5 µM.

What about the melting point of the same compound?
The melting point was 240 to 241 °C.

For CSc1cnc2c(c1)c(C(N)=O)c(-c1ccc(NS(=O)(=O)C(C)(C)C)cc1)n2C1CCC1 [Cpd 387, 2-{4-[(tert-butylsulfonyl)amino]phenyl}-1-cyclobutyl-5-(methylsulfanyl)-1H-pyrrolo[2,3-b]pyridine-3-carboxamide], which IC50 [1] is on record?
The IC50 was < 0.5 µM.

What about the melting point of the same compound?
Its melting point is 240 to 241 °C.

Which results are given for CC(C)(NS(=O)(=O)c1ccc(-c2c(C(N)=O)c3cccnc3n2C2CCC2)cc1)C(F)(F)F [Cpd 388, 1-cyclobutyl-2-{4-[(1,1,1-trifluoro-2-methylpropan-2-yl)sulfamoyl]phenyl}-1H-pyrrolo[2,3-b]pyridine-3-carboxamide]?
IC50 [1]: 0.5 to 2 µM; melting point: 240 to 242 °C

What does the source list for CSc1cnc2c(c1)c(C(N)=O)c(-c1ccc(S(=O)(=O)NC(C)(C)C(F)(F)F)cc1)n2C1CCC1 [Cpd 391, 1-cyclobutyl-5-(methylsulfanyl)-2-{4-[(1,1,1-trifluoro-2-methylpropan-2-yl)sulfamoyl]phenyl}-1H-pyrrolo[2,3-b]pyridine-3-carboxamide]?
IC50 [1]: < 0.5 µM; melting point: 204 to 205 °C

Which results are given for CSc1cnc2c(c1)c(C(N)=O)c(-c1ccc(S(=O)(=O)NC(C)(C)C)cc1)n2C1CCC1 [Cpd 392, 2-[4-(tert-butylsulfamoyl)phenyl]-1-cyclobutyl-5-(methylsulfanyl)-1H-pyrrolo[2,3-b]pyridine-3-carboxamide]?
IC50 [1]: < 0.5 µM; melting point: 224 to 226 °C

Which results are given for CC(C)(C)NS(=O)(=O)c1ccc(-c2c(C(N)=O)c3cc(Cl)cnc3n2C2CCC2)cc1 [Cpd 393, 2-[4-(tert-butylsulfamoyl)phenyl]-5-chloro-1-cyclobutyl-1H-pyrrolo[2,3-b]pyridine-3-carboxamide]?
IC50 [1]: < 0.5 µM; melting point: 269 to 270 °C

With CC(C)(NS(=O)(=O)c1ccc(-c2c(C#N)c3cc(C(F)(F)F)cnc3n2C2CCC2)nc1)C(F)(F)F [Cpd 395, 6-[3-cyano-1-cyclobutyl-5-(trifluoromethyl)-1H-pyrrolo[2,3-b]pyridin-2-yl]-N-(1,1,1-trifluoro-2-methylpropan-2-yl)pyridine-3-sulfonamide] as the compound, how does the IC50 [1] read?
The IC50 was < 0.5 µM.

And the melting point?
The melting point was 174 to 176 °C.

With N#Cc1c(-c2ccc(S(=O)(=O)NC3(C(F)(F)F)CC3)cn2)n(C2CCC2)c2ncc(C(F)(F)F)cc12 [Cpd 396, 6-[3-cyano-1-cyclobutyl-5-(trifluoromethyl)-1H-pyrrolo[2,3-b]pyridin-2-yl]-N-[1-(trifluoromethyl)cyclopropyl]pyridine-3-sulfonamide] as the compound, how does the IC50 [1] read?
The IC50 was < 0.5 µM.

And the melting point?
The melting point was 156 to 158 °C.

With CC1(NS(=O)(=O)c2ccc(-c3c(C#N)c4cc(C(F)(F)F)cnc4n3C3CCC3)nc2)CC1 [Cpd 398, 6-[3-cyano-1-cyclobutyl-5-(trifluoromethyl)-1H-pyrrolo[2,3-b]pyridin-2-yl]-N-(1-methylcyclopropyl)pyridine-3-sulfonamide] as the compound, how does the IC50 [1] read?
The IC50 was < 0.5 µM.

What about the melting point of the same compound?
Its melting point is 172 to 175 °C.

For CC(C)(NS(=O)(=O)c1ccc(-c2c(C(N)=O)c3cc(C(F)(F)F)cnc3n2C2CCC2)nc1)C(F)(F)F [Cpd 399, 1-cyclobutyl-5-(trifluoromethyl)-2-{5-[(1,1,1-trifluoro-2-methylpropan-2-yl)sulfamoyl]pyridin-2-yl}-1H-pyrrolo[2,3-b]pyridine-3-carboxamide], which IC50 [1] is on record?
Its IC50 is < 0.5 µM.

What about the melting point of the same compound?
Its melting point is 217 to 219 °C.

What does the source list for NC(=O)c1c(-c2ccc(S(=O)(=O)NC3(C(F)(F)F)CC3)cn2)n(C2CCC2)c2ncc(C(F)(F)F)cc12 [Cpd 400, 1-cyclobutyl-5-(trifluoromethyl)-2-(5-{[1-(trifluoromethyl)cyclopropyl]sulfamoyl}pyridin-2-yl)-1H-pyrrolo[2,3-b]pyridine-3-carboxamide]?
IC50 [1]: < 0.5 µM; melting point: 230 to 235 °C

Which IC50 [1] does the source give for CC(C)(NS(=O)(=O)c1ccc(-c2c(C(N)=O)c3cc(C(F)(F)F)cnc3n2C2CCC2)cc1)C(F)(F)F [Cpd 401, 1-cyclobutyl-5-(trifluoromethyl)-2-{4-[(1,1,1-trifluoro-2-methylpropan-2-yl)sulfamoyl]phenyl}-1H-pyrrolo[2,3-b]pyridine-3-carboxamide] here?
The IC50 was < 0.5 µM.

What about the melting point of the same compound?
Its melting point is 239 to 241 °C.

For NC(=O)c1c(-c2ccc(S(=O)(=O)NC3(C(F)(F)F)CC3)cc2)n(C2CCC2)c2ncc(C(F)(F)F)cc12 [Cpd 402, 1-cyclobutyl-5-(trifluoromethyl)-2-(4-{[1-(trifluoromethyl)cyclopropyl]sulfamoyl}phenyl)-1H-pyrrolo[2,3-b]pyridine-3-carboxamide], which IC50 [1] is on record?
Its IC50 is < 0.5 µM.

What about the melting point of the same compound?
The melting point was 261 to 263 °C.

For CC(C)(C)NS(=O)(=O)c1ccc(-c2c(C(N)=O)c3cc(C(F)(F)F)cnc3n2C2CCC2)cc1 [Cpd 403, 2-[4-(tert-butylsulfamoyl)phenyl]-1-cyclobutyl-5-(trifluoromethyl)-1H-pyrrolo[2,3-b]pyridine-3-carboxamide], which IC50 [1] is on record?
The IC50 was < 0.5 µM.

And the melting point?
Its melting point is 255 to 257 °C.

With CC(C)(C)S(=O)(=O)Nc1ccc(-c2c(C(N)=O)c3cc(C(F)(F)F)cnc3n2C2CCC2)cc1 [Cpd 404, 2-{4-[(tert-butylsulfonyl)amino]phenyl}-1-cyclobutyl-5-(trifluoromethyl)-1H-pyrrolo[2,3-b]pyridine-3-carboxamide] as the compound, how does the IC50 [1] read?
The IC50 was < 0.5 µM.

And the melting point?
The melting point was 257 to 259 °C.

Which results are given for Cc1nc2c(cc1C(F)(F)F)c(C#N)c(-c1ccc(S(=O)(=O)N[C@@H](C)C(F)(F)F)cn1)n2C1CCC1 [Cpd 405, 6-[3-cyano-1-cyclobutyl-6-methyl-5-(trifluoromethyl)-1H-pyrrolo[2,3-b]pyridin-2-yl]-N-[(2S)-1,1,1-trifluoropropan-2-yl]pyridine-3-sulfonamide]?
IC50 [1]: < 0.5 µM; melting point: 201 to 203 °C

With CC(C)(NS(=O)(=O)c1ccc(-c2c(C(N)=O)c3cc(C(F)(F)F)cnc3n2C2CCCC2)nc1)C(F)(F)F [Cpd 406, 1-cyclopentyl-5-(trifluoromethyl)-2-{5-[(1,1,1-trifluoro-2-methylpropan-2-yl)sulfamoyl]pyridin-2-yl}-1H-pyrrolo[2,3-b]pyridine-3-carboxamide] as the compound, how does the IC50 [1] read?
Its IC50 is < 0.5 µM.

What about the melting point of the same compound?
The melting point was 244 to 246 °C.

For NC(=O)c1c(-c2ccc(S(=O)(=O)NC3(C(F)(F)F)CC3)cn2)n(C2CCCC2)c2ncc(C(F)(F)F)cc12 [Cpd 407, 1-cyclopentyl-5-(trifluoromethyl)-2-(5-{[1-(trifluoromethyl)cyclopropyl]sulfamoyl}pyridin-2-yl)-1H-pyrrolo[2,3-b]pyridine-3-carboxamide], which IC50 [1] is on record?
Its IC50 is < 0.5 µM.

And the melting point?
The melting point was 262 to 264 °C.

Which IC50 [1] does the source give for NC(=O)c1c(-c2ccc(S(=O)(=O)NC3(C(F)(F)F)CC3)cc2)n(C2CCCC2)c2ncc(C(F)(F)F)cc12 [Cpd 408, 1-cyclopentyl-5-(trifluoromethyl)-2-(4-{[1-(trifluoromethyl)cyclopropyl]sulfamoyl}phenyl)-1H-pyrrolo[2,3-b]pyridine-3-carboxamide] here?
Its IC50 is < 0.5 µM.

And the melting point?
The melting point was 277 to 279 °C.

With C[C@H](NS(=O)(=O)c1ccc(-c2c(C(N)=O)c3cc(C(F)(F)F)cnc3n2C2CCCC2)nc1)C(F)(F)F [Cpd 409, 1-cyclopentyl-5-(trifluoromethyl)-2-(5-{[(2S)-1,1,1-trifluoropropan-2-yl]sulfamoyl}pyridin-2-yl)-1H-pyrrolo[2,3-b]pyridine-3-carboxamide] as the compound, how does the IC50 [1] read?
Its IC50 is < 0.5 µM.

What about the melting point of the same compound?
The melting point was 261 to 263 °C.

For CCc1cnc2c(c1)c(C#N)c(-c1ccc(S(=O)(=O)N[C@@H](C)C(F)(F)F)cn1)n2-c1cnccn1 [Cpd 411, 6-[3-cyano-5-ethyl-1-(pyrazin-2-yl)-1H-pyrrolo[2,3-b]pyridin-2-yl]-N-[(2S)-1,1,1-trifluoropropan-2-yl]pyridine-3-sulfonamide], which IC50 [1] is on record?
Its IC50 is < 0.5 µM.

And the melting point?
The melting point was 195 to 200 °C.

With CCc1cnc2c(c1)c(C#N)c(-c1ccc(S(=O)(=O)N[C@@H](C)C(F)(F)F)cn1)n2-c1cc(F)ccn1 [Cpd 412, 6-[3-cyano-5-ethyl-1-(4-fluoropyridin-2-yl)-1H-pyrrolo[2,3-b]pyridin-2-yl]-N-[(2S)-1,1,1-trifluoropropan-2-yl]pyridine-3-sulfonamide] as the compound, how does the IC50 [1] read?
Its IC50 is < 0.5 µM.

What about the melting point of the same compound?
Its melting point is 201 to 205 °C.

For CCc1cnc2c(c1)c(C#N)c(-c1ccc(S(=O)(=O)N[C@@H](C)C(F)(F)F)cn1)n2-c1ccccc1 [Cpd 413, 6-(3-cyano-5-ethyl-1-phenyl-1H-pyrrolo[2,3-b]pyridin-2-yl)-N-[(2S)-1,1,1-trifluoropropan-2-yl]pyridine-3-sulfonamide], which IC50 [1] is on record?
Its IC50 is < 0.5 µM.

And the melting point?
Its melting point is 135 to 140 °C.
